In patent US8952043B2, “Benzoxepin PI3K inhibitor compounds and methods of use” (Genentech, Inc., priority 2009, dated 2015):
Each block holds one compound with its values, some of them ahead of it.

Legend:
EVSA-T = assay: CellTiter-Glo cell proliferation assay, EVSA-T; assay type: cell-based; conditions: Homo sapiens, Breast, mutation status PTEN
Procedure: (§1) The in vitro potency of Formula I exemplary compounds was measured by the cell proliferation assay, CellTiter-Glo® Luminescent Cell Viability Assay, commercially available from Promega Corp., Madison, Wis. (Example 602). This homogeneous assay method is based on the recombinant expression of Coleoptera luciferase (U.S. Pat. Nos. 5,583,024; 5,674,713; 5,700,670) and determines the number of viable cells in culture based on quantitation of the ATP present, an indicator of metabolically active cells (Crouch et al (1993) J. Immunol. Meth. 160:81-88; U.S. Pat. No. 6,602,677). The CellTiter-Glo® Assay was conducted in 96 or 384 well format, making it amenable to automated high-throughput screening (HTS) (Cree et al (1995) AntiCancer Drugs 6:398-404). The homogeneous assay procedure involves adding the single reagent (CellTiter-Glo® Reagent) directly to cells cultured in serum-supplemented medium. Cell washing, removal of medium and multiple pipetting steps are not required. The system detects as few as 15 cells/well in a 384-well format in 10 minutes after adding reagent and mixing.
(§2) Efficacy of Formula I compounds were measured by a cell proliferation assay employing the following protocol (Promega Corp. Technical Bulletin TB288; Mendoza et al (2002) Cancer Res. 62:5485-5488):
(§3) 1. An aliquot of 100 μl of cell culture containing about 10^4 cells (PC3, Detroit562, or MDAMB361.1) in medium was deposited in each well of a 384-well, opaque-walled plate.
(§4) 2. Control wells were prepared containing medium and without cells.
(§5) 3. The compound was added to the experimental wells and incubated for 3-5 days.
(§6) 4. The plates were equilibrated to room temperature for approximately 30 minutes.
(§7) 5. A volume of CellTiter-Glo Reagent equal to the volume of cell culture medium present in each well was added.
(§8) 6. The contents were mixed for 2 minutes on an orbital shaker to induce cell lysis.
(§9) 7. The plate was incubated at room temperature for 10 minutes to stabilize the luminescence signal.
(§10) 8. Luminescence was recorded and reported in graphs as RLU=relative luminescence units.
(§11) Alternatively, cells were seeded at optimal density in a 96 well plate and incubated for 4 days in the presence of test compound. Alamar Blue™ was subsequently added to the assay medium, and cells were incubated for 6 hr before reading at 544 nm excitation, 590 nm emission. EC50 values were calculated using a sigmoidal dose response curve fit. […] It is commonly used as a measure of drug potency.
(§12) The anti-proliferative effects of Formula I exemplary compounds were measured by the CellTiter-Glo® Assay against various tumor cell lines, including the following: […]

KPL4 = assay: CellTiter-Glo cell proliferation assay, KPL4; assay type: cell-based; conditions: Breast, mutation status PI3K
Procedure: as §1, §2
1. […]
as §9, §10
(§13) Alternatively, cells were seeded at optimal density in a 96 well plate and incubated for 4 days in the presence of test compound. Alamar Blue™ was subsequently added to the assay medium, and cells were incubated for 6 hr before reading at 544 nm excitation, 590 nm emission. EC50 values were calculated using a sigmoidal dose response curve fit. […]
as §12

AU565 = assay: CellTiter-Glo cell proliferation assay, AU565; assay type: cell-based; conditions: Homo sapiens, Breast, mutation status WT
Procedure: as §1, §2, §3, §4, §5, §6, §7, §8, §9, §10, §11, §12

T47D = assay: CellTiter-Glo cell proliferation assay, T47D; assay type: cell-based; conditions: Homo sapiens, Breast, mutation status PI3K
Procedure: as §1, §2
1. […]
as §9, §10, §13, §12

H2122 = assay: CellTiter-Glo cell proliferation assay, H2122; assay type: cell-based; conditions: Homo sapiens, NCI-H2122, Lung(NSCLC), mutation status K-RAS
Procedure: as §1, §2
1. […]
as §9, §10, §13, §12

HCC1954 = assay: CellTiter-Glo cell proliferation assay, HCC1954; assay type: cell-based; conditions: Homo sapiens, Breast, mutation status PI3K
Procedure: as §1, §2
1. […]
as §9, §10, §13, §12

SKBR3 = assay: CellTiter-Glo cell proliferation assay, SKBR3; assay type: cell-based; conditions: Homo sapiens, SK-BR-3, Breast, mutation status WT
Procedure: (§14) The in vitro potency of Formula I exemplary compounds was measured by the cell proliferation assay, CellTiter-Glo® Luminescent Cell Viability Assay, commercially available from Promega Corp., Madison, Wis. (Example 602). This homogeneous assay method is based on the recombinant expression of Coleoptera luciferase (U.S. Pat. Nos. 5,583,024; 5,674,713; 5,700,670) and determines the number of viable cells in culture based on quantitation of the ATP present, an indicator of metabolically active cells (Crouch et al (1993) J. Immunol. Meth. 160:81-88; U.S. Pat. No. 6,602,677). […]
(§15) Efficacy of Formula I compounds were measured by a cell proliferation assay employing the following protocol (Promega Corp. Technical Bulletin TB288; Mendoza et al (2002) Cancer Res. 62:5485-5488): […]
as §9, §10, §13

PC3 = assay: CellTiter-Glo cell proliferation assay, PC3; assay type: cell-based; conditions: Homo sapiens, PC-3, Prostate, mutation status PTEN
Procedure: as §1, §2
1. […]
as §9, §10, §13, §12

MFM223 = assay: CellTiter-Glo cell proliferation assay, MFM223; assay type: cell-based; conditions: Homo sapiens, MFM-223, Breast, mutation status PI3K
Procedure: as §1, §2
1. […]
as §9, §10, §13, §12

MDA-MB-361.1 = assay: CellTiter-Glo cell proliferation assay, MDA-MB-361.1; assay type: cell-based; conditions: Breast, mutation status PI3K
Procedure: as §1, §2, §3, §4, §5, §6, §7, §8, §9, §10, §11, §12

BT474 = assay: CellTiter-Glo cell proliferation assay, BT474; assay type: cell-based; conditions: Homo sapiens, BT-474, Breast, mutation status PI3K(amped)
Procedure: as §1, §2
1. […]
as §9, §10, §13, §12

p110 alpha PI3K = target: T1, p110 alpha PI3K (Homo sapiens, UniProt P42336); assay: p110α (alpha) PI3K binding assay (fluorescence polarization); conditions: read-out: IC50 (inhibition of PI3K alpha, p110 alpha)
T1 construct: purchased Upstate Cell Signaling Solutions, Charlottesville, Va
Procedure: Determination of the PI3 kinase activity of a Formula I compound is possible by a number of direct and indirect detection methods. Certain exemplary compounds described herein were assayed for their p110α (alpha), and other isoform, PI3K binding activity (Example 601) and in vitro activity against tumor cells (Example 602).
Binding Assays: Initial polarization experiments were performed on an Analyst HT 96-384 (Molecular Devices Corp, Sunnyvale, Calif.). […] After an incubation time of 30 minutes at room temperature, the reactions were stopped by the addition of GRP-1 and PIP3-TAMRA probe (Echelon-Inc., Salt Lake City, Utah.) 100 nM and 5 nM final concentrations respectively. Read with standard cut-off filters for the rhodamine fluorophore (λex=530 nm; λem=590 nm) in 384-well black low volume Proxiplates (PerkinElmer, Wellesley, Mass.) Fluorescence polarization values were plotted as a function of the protein concentration, and the EC50 values were obtained by fitting the data to a 4-parameter equation using KaleidaGraph software (Synergy software, Reading, Pa.). This experiment also establishes the appropriate protein concentration to use in subsequent competition experiments with inhibitors.
Inhibitor IC50 values were determined by addition of the 0.04 mg/mL p110 alpha PI3K (final concentration) combined with PIP2 ([…] final concentration) to wells containing 1:3 serial dilutions of the antagonists in a final concentration of […] ATP (Cell Signaling Technology, Inc., Danvers, Mass.) in the polarization buffer. After an incubation time of 30 minutes at room temperature, the reactions were stopped by the addition of GRP-1 and PIP3-TAMRA probe (Echelon-Inc., Salt Lake City, Utah.) 100 nM and 5 nM final concentrations respectively. Read with standard cut-off filters for the rhodamine fluorophore (λex=530 nm; λem=590 nm) in 384-well black low volume proxi plates (PerkinElmer, Wellesley, Mass.) Fluorescence polarization values were plotted as a function of the antagonist concentration, and the IC50 values were obtained by fitting the data to a 4-parameter equation in Assay Explorer software (MDL, San Ramon, Calif.).
Alternatively, inhibition of PI3K was determined in a radiometric assay using purified, recombinant enzyme and ATP at a concentration of 1 uM. The Formula I compound was serially diluted in 100% DMSO. The kinase reaction was incubated for 1 hr at room temperature, and the reaction was terminated by the addition of PBS. IC50 values were subsequently determined using sigmoidal dose-response curve fit (variable slope).

KM12 = assay: CellTiter-Glo cell proliferation assay, KM12; assay type: cell-based; conditions: Homo sapiens, Colon, mutation status PTEN
Procedure: as §14, §15, §9, §10, §13

MDST8 = assay: CellTiter-Glo cell proliferation assay, MDST8; assay type: cell-based; conditions: Colon, mutation status PTEN
Procedure: as §14, §15, §9, §10, §13

H520 = assay: CellTiter-Glo cell proliferation assay, H520; assay type: cell-based; conditions: Homo sapiens, NCI-H520, Lung(NSCLC), mutation status PTEN
Procedure: as §14, §15, §9, §10, §13

U87MG = assay: CellTiter-Glo cell proliferation assay, U87MG; assay type: cell-based; conditions: Homo sapiens, U-87 MG, Glioma, mutation status PTEN
Procedure: as §14, §15, §9, §10, §13

T1 sequence (P42336 whole entry): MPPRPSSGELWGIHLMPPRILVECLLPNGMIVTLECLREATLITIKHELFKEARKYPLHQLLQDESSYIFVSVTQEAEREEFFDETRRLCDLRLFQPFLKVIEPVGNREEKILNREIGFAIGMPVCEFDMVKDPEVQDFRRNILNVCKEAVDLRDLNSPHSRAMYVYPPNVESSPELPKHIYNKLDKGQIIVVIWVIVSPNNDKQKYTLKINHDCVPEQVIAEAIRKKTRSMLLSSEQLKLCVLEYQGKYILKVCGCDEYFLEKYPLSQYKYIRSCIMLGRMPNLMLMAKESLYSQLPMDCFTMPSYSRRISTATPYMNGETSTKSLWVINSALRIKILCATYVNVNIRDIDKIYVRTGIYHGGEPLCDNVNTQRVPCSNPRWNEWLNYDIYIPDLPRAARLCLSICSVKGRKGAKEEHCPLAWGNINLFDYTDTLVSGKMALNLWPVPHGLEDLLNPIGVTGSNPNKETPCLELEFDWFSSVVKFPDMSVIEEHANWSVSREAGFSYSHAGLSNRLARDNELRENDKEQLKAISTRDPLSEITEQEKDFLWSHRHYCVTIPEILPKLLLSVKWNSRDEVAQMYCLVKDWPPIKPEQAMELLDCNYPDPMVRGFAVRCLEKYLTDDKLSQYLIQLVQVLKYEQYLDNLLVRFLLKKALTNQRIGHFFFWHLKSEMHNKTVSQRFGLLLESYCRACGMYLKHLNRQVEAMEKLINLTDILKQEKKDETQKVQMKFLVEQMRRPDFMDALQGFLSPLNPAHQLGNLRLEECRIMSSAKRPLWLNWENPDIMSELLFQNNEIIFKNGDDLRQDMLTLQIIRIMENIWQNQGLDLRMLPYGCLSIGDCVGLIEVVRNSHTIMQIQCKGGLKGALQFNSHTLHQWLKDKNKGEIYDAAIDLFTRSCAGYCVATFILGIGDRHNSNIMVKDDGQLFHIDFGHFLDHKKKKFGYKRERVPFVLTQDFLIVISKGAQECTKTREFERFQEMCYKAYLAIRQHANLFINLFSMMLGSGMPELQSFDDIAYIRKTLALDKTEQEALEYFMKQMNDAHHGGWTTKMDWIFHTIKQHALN
T1 sequence (P27986 whole entry partner): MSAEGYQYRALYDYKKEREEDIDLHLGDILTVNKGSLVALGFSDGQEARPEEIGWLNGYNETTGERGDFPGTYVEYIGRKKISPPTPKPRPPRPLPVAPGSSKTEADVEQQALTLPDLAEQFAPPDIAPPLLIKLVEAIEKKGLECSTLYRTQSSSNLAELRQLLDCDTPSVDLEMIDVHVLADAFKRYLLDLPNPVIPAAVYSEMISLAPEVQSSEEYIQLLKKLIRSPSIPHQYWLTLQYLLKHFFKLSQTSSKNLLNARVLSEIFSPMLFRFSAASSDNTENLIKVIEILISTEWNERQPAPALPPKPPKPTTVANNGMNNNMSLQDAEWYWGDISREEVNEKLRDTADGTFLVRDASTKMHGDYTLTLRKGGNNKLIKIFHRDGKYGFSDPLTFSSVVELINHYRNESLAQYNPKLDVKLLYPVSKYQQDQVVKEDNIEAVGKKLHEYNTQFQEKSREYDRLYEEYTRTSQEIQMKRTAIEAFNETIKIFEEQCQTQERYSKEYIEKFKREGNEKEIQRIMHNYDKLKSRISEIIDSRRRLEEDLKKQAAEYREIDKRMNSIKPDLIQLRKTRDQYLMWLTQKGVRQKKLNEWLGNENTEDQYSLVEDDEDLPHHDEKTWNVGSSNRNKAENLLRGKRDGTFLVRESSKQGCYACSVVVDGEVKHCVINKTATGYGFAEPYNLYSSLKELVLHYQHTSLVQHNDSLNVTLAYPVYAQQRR

SMILES: O=C(NCc1ccc2c(c1)OCCc1sc(-c3ncnn3CC(F)(F)F)nc1-2)c1cn[nH]c1 [compound 106, 1H-Pyrazole-4-carboxylic acid {2-[2-(2,2,2-trifluoro-ethyl)-2H-[1,2,4]triazol-3-yl]-4,5-dihydro-6-oxa-3-thia-1-aza-benzo[e]azulen-8-ylmethyl}-amide]
IC50 (p110 alpha PI3K): 5.7 nM

SMILES: O=S1(=O)CCN(CCNc2ccc3c(n2)-c2sc(-c4ncnn4-c4ccc(F)cc4F)cc2CCO3)CC1 [compound 109, {2-[2-(2,4-Difluoro-phenyl)-2H-[1,2,4]triazol-3-yl]-4,5-dihydro-6-oxa-1-thia-10-aza-benzo[e]azulen-9-yl}-[2-(1,1-dioxo-1S-thiomorpholin-4-yl)-ethyl]-amine]
IC50 (p110 alpha PI3K): 1.3 nM

SMILES: O=C(c1nc2c(s1)CCOc1cc(-c3cn[nH]c3)ccc1-2)N1CCC[C@@H]1CO [compound 101, ((R)-2-Hydroxymethyl-pyrrolidin-1-yl)-[8-(1H-pyrazol-4-yl)-4,5-dihydro-6-oxa-3-thia-1-aza-benzo[e]azulen-2-yl]-methanone]
IC50 (p110 alpha PI3K): 31 nM

Second part, led by results:

EC50 (T47D): 569 nM
EC50 (H2122): 10000 nM
EC50 (HCC1954): 1620 nM
EC50 (SKBR3): 1730 nM
EC50 (PC3): 3030 nM
EC50 (MDA-MB-361.1): 2610 nM
EC50 (BT474): 1630 nM
SMILES: Cc1nc(-c2nc3c(s2)CCOc2cc(-c4cn(CCO)cn4)ccc2-3)n(C(C)C)n1 [compound 440, 2-{4-[2-(2-Isopropyl-5-methyl-2H-[1,2,4]triazol-3-yl)-4,5-dihydro-6-oxa-3-thia-1-aza-benzo[e]azulen-8-yl]-imidazol-1-yl}-ethanol]
EC50 (EVSA-T): 4930 nM
EC50 (KPL4): 338 nM
EC50 (AU565): 1240 nM
EC50 (MFM223): 4410 nM

IC50 (p110 alpha PI3K): 21 nM
SMILES: CC(C)n1ncnc1-c1cc2c(s1)-c1ccc(-c3cccc(C(=O)O)c3)cc1OCC2 [compound 147, 3-(2-(1-isopropyl-1H-1,2,4-triazol-5-yl)-4,5-dihydrobenzo[b]thieno[2,3-d]oxepin-8-yl)benzoic acid]

EC50 (H520): 972 nM
EC50 (T47D): 185 nM
EC50 (H2122): 542 nM
EC50 (HCC1954): 340 nM
EC50 (U87MG): 2090 nM
EC50 (PC3): 185 nM
EC50 (MDA-MB-361.1): 855 nM
EC50 (BT474): 638 nM
SMILES: CC(C)n1nc(N)nc1-c1nc2c(s1)CCOc1cc(C3CN(CCS(C)(=O)=O)C3)ccc1-2 [compound 463, 1-Isopropyl-5-{8-[1-(2-methanesulfonyl-ethyl)-azetidin-3-yl]-4,5-dihydro-6-oxa-3-thia-1-aza-benzo[e]azulen-2-yl}-1H-[1,2,4]triazol-3-ylamine]
EC50 (KM12): 321 nM
EC50 (MDST8): 1720 nM
EC50 (EVSA-T): 746 nM
EC50 (KPL4): 103 nM
EC50 (AU565): 225 nM
EC50 (MFM223): 559 nM
